In patent US8158621B2, “Methods of treating or preventing autoimmune diseases with 2,4-pyrimidinediamine compounds” (Rigel Pharmaceuticals, Inc., priority 2002, dated 2012):
Where two headings read alike, the source gives them in different places.

Columns and labels:
Syk kinase = molecular target: T1, Syk kinase (Homo sapiens, UniProt P43405); test: Syk kinase biochemical fluorescence polarization assay; conditions: isolated Syk kinase, fluorescence polarization, 4 uM ATP
T1 construct: purchased Upstate, Lake Placid NY

[1] = tested on: Human Jurkat T-cells (clone N); test: Jurkat T-cell activation (anti-TCR, CD69 upregulation); type: cell-based
Procedure, shortened: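 Readout is CD69 upregulation by flow cytometry (anti-CD69-APC, 20 min at 4 °C) after 20 h anti-TCR (C305, 500 ng/ml) stimulation at 37 °C.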

[2] = tested on: cultured human mast cells (CHMC); test: CHMC low cell density ionomycin activation: tryptase assay; type: cell-based
[3] = tested on: cultured human mast cells (CHMC); test: CHMC low cell density IgE activation: tryptase assay; type: cell-based
Procedure, shortened: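 Degranulation is read as supernatant tryptase activity, using tryptase substrate incubated 30 min at room temperature. Before this, CHMC at low density (1000-1500 cells/well) rest 1 hr at 37° C and are triggered with anti-IgE for 30 min at 37° C.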

[4] = Low Density, read-out: CHMC Ionomycin Tryptase
[5] = Low Density, read-out: CHMC anti-IgE Tryptase
[6] = Low Density CHMC, ionomycin activation, tryptase release, read-out: CHMC Ionomycin Tryptase IC50
[7] = Low Density CHMC, anti-IgE activation, tryptase release, read-out: CHMC anti-IgE Tryptase IC50

Structure (SMILES)	IC50 (Syk kinase) [µM]	IC50 [1] [µM]	also measured
Cc1cnc(Nc2ccc3c(c2)OCCO3)nc1Nc1ccc2c(c1)OCCO2 [Compound R926242]	1.81		IC50 ([1]; Homo sapiens, Jurkat): 3.82 µM
CNC(=O)COc1cccc(Nc2ncc(F)c(Nc3ccc4c(c3)NC(=O)CO4)n2)c1 [Compound R908701]	0.022	0.302	
CCOC(=O)c1cnc(Nc2ccc(OCC(=O)N3CCCC3)cc2)nc1Nc1ccc(OCC(=O)N2CCCC2)cc1 [Compound R926562]	> 10	1.25	
CNC(=O)COc1cccc(Nc2ncc(F)c(Nc3ccc4c(c3)NC(C)(C)CO4)n2)c1 [Compound R909309]	0.09		
Oc1c(Cl)cc(Nc2ncc(F)c(Nc3ccc4c(c3)OCCO4)n2)cc1Cl [Compound R926763]	0.024		IC50 ([1]; Homo sapiens, Jurkat): 3.72 µM
CC1(C)Oc2ccc(Nc3nc(Nc4ccc(Cl)c(Cl)c4)ncc3F)nc2NC1=O [Compound R940373]	> 10		
Nc1cc(Nc2ncc(F)c(Nc3ccc(Nc4ccccc4)c(N)c3)n2)ccc1Nc1ccccc1 [Compound R950125]		> 10	IC50 [2, 4]: 6.3 µM; IC50 [3, 5]: 1.38 µM
CCOC(=O)CCn1ncc2ccc(Nc3ncc(F)c(Nc4ccc(OC(C)C)cc4)n3)cc21 [Compound R935289]		5.34	IC50 [2, 4]: > 10 µM; IC50 [3, 5]: 1.69 µM
COC(=O)C(Nc1nc(Nc2cccc(O)c2)ncc1C#N)c1ccccc1 (stereo not drawn) [Compound R925821]		> 10	IC50 [2, 6]: > 10 µM; IC50 [3, 7]: > 10 µM
Cn1ncc2cc(Nc3ncc(F)c(Nc4ccc5c(c4)OCCO5)n3)ccc21 [Compound R935193]	0.11	1.6	
Oc1cccc(Nc2nc(Nc3ccc4[nH]ccc4c3)ncc2F)c1 [Compound R926749]		4.68	IC50 [2, 6]: > 10 µM; IC50 [3, 7]: 0.472 µM
CNC(=O)COc1cccc(Nc2ncc(F)c(Nc3ccc4c(c3)C(O)CCO4)n2)c1 (stereo not drawn) [Compound R950349]	0.033	0.363	
Fc1cnc(Nc2ccc3[nH]ncc3c2)nc1Nc1ccc(OC(F)(F)F)c(Cl)c1 [Compound R935366]	0.38	4.18	
CC1(C)Oc2ccc(Nc3nc(Nc4ccc5c(c4)NC(=O)C(F)(F)O5)ncc3F)cc2NC1=O [Compound R940351]	0.25		
Cc1ccc(-c2ccccc2)cc1Nc1ncc(Br)c(Nc2cc(-c3ccccc3)ccc2C)n1 [Compound R925800]		> 10	IC50 [2, 6]: > 10 µM; IC50 [3, 7]: > 10 µM
CNC(=O)COc1cccc(Nc2ncc(F)c(Nc3ccc4c(c3)OCCCO4)n2)c1 [Compound R935202]	0.035	1.94	
CCOc1ccc(Nc2ncc(F)c(Nc3ccc4c(n3)NC(=O)CO4)n2)cc1 [Compound R945407]	> 10		
CC(C)c1ccc(Nc2ncc(F)c(Nc3cccc(O)c3)n2)cc1 [Compound R926778]		> 10	IC50 [2, 6]: > 10 µM; IC50 [3, 7]: 0.414 µM
CC(C)c1cccc(Nc2ncc(F)c(Nc3ccc4c(n3)NC(=O)CO4)n2)c1 [Compound R945434]	> 10		
O=C1COc2ccc(Nc3nc(Nc4cccc(O)c4)ncc3F)cc2N1 [Compound R908702]		0.37	IC50 [2, 4]: 7.4 µM; IC50 [3, 5]: 0.104 µM
COC(=O)c1cc2cc(Nc3ncc(F)c(Nc4ccc(C(C)(C)C)cc4)n3)ccc2o1 [Compound R926477]		> 10	IC50 [2, 6]: > 10 µM; IC50 [3, 7]: 0.27 µM
COc1ccc(Nc2ncc(F)c(Nc3ccc4c(n3)NC(=O)CO4)n2)cc1OC [Compound R945422]	0.087		
O=C(O)CNc1cccc(Nc2ncc(F)c(Nc3cccc(OCCO)c3)n2)c1 [Compound R950230]		8.23	IC50 [2, 4]: > 10 µM; IC50 [3, 5]: 7.91 µM
Oc1cccc(Nc2ncc(F)c(NCc3cccnc3)n2)c1 [Compound R945147]		> 10	IC50 [2, 4]: > 10 µM; IC50 [3, 5]: 3.55 µM
COc1ccc(Nc2ncc(F)c(Nc3ccc(OC)c(Cl)c3)n2)cc1Cl [Compound R926946]	10.2		IC50 ([1]; Homo sapiens, Jurkat): 9.4 µM
COC(=O)[C@H](Cc1ccc(O)cc1)Nc1nc(N(C)C)ncc1F [Compound R940110]		> 10	IC50 [2, 4]: > 10 µM; IC50 [3, 5]: > 10 µM
COc1cc(Nc2nc(Nc3cccc(OCCO)c3)ncc2F)cc(OC)c1 [Compound R935181]		8.98	IC50 [2, 4]: > 10 µM; IC50 [3, 5]: 1.76 µM
Cc1ccc(Nc2nc(Cl)ncc2F)cc1C(F)(F)F [Compound R926920]			IC50 ([2]; Homo sapiens, Mast cell, Low Density, read-out: CHMC Ionomycin Tryptase): > 10 µM; IC50 ([3]; Homo sapiens, Mast cell, Low Density, read-out: CHMC anti-IgE Tryptase): > 10 µM; IC50 ([1]; Homo sapiens, Jurkat): > 10 µM
